Assay [1] relates to wheat leaf rust fungus (Puccinia recondita). As to the kind of experiment: Wheat leaf rust control test (foliar spray on wheat seedlings). It counts as in vivo. The conditions noted are these: 240 h, 125 ppm active ingredient, sprayed on wheat seedlings (variety Norin 61) before inoculation, 10 days, vs untreated.
The subject of assay [2] is Apple scab fungus (Venturia inaequalis). Briefly: Apple scab control test (foliar spray on apple seedlings). To be noted: 125 ppm active ingredient, sprayed on apple seedlings (variety Orin) before inoculation, vs untreated. The class given is in vivo. The method, then: The dilution was sprayed to apple seedlings (variety “Orin”, 3 to 4 leaf stage) grown in clay pots. […] The control value was calculated by the following equation. [formula]

The test system of assay [3] is cucumber gray mold fungus (Botrytis cinerea). As to the kind of experiment: Cucumber gray mold control test (foliar spray on cucumber seedlings). The conditions noted are these: in Cucumis sativus, 96 h, read-out: control value.
In assay [4] the test system is Tomato late blight fungus (Phytophthora infestans). As to the kind of experiment: whole plant or invertebrate. It counts as in vivo. The conditions noted are these: foliar, 96 h, read-out: control value.

As to `N=C(N)NCCCCCCCNC(=N)NCCCCOc1ccc(C(=N)N)cc1` [compound 16, 4-[4-[[N-(7-guanidinoheptyl)carbamimidoyl]amino]butoxy]benzamidine], the pest or weed control at 125 ppm in assay [1] was no less than 75%.

As to `N=C(N)NCCCCCCCNC(=N)NCCOCc1cc(C(=N)N)cs1` [compound 48, 5-[2-[[N-(7-guanidinoheptyl)carbamimidoyl]amino]ethoxymethyl]thiophene-3-carboxamidine], the pest or weed control at 125 ppm in assay [1], in assay [2] and in assay [3] was no less than 75% in each case.

In the case of `N=C(N)NCCCCCCCNC(=N)NCCCC#Cc1nc(C(=N)N)cs1` [compound 50, 2-[5-[[N-(7-guanidinoheptyl)carbamimidoyl]amino]pent-1-ynyl]thiazole-4-carboxamidine], the pest or weed control at 125 ppm in assay [1], in assay [2] and in assay [3] was no less than 75% throughout.

Regarding `N=C(N)NCCCCCNC(=N)NCCCCOc1ccc(C(=N)N)cc1` [compound 59], the pest or weed control at 125 ppm in assay [1], in assay [2] and in assay [3] was no less than 75% in each case.

In the case of `CN(CCCOc1ccc(C(=N)N)cc1)C(=N)NCCCOc1ccc(C(=N)N)cc1` [compound 72], the pest or weed control at 125 ppm in assay [1], in assay [2] and in assay [3] was no less than 75% each time.

`Cc1c(C)n(CCCCOc2ccc(C(=N)N)cc2)c(=N)n1CCCCOc1ccc(C(=N)N)cc1` [compound 105]: the pest or weed control at 125 ppm in assay [4], in assay [2] and in assay [3] was no less than 75% throughout.

Consider `CNC(=N)c1ccc(OCCCn2ccn(CCCOc3ccc(C(=N)NC)cc3)c2=N)cc1` [compound 116], for which the pest or weed control at 125 ppm in assay [4], in assay [2] and in assay [3] was no less than 75% each time.

For the compound `CNC(=N)c1ccc(OCCCCn2ccn(CCCCOc3ccc(C(=N)NC)cc3)c2=N)cc1` [compound 118], the pest or weed control at 125 ppm in assay [4], in assay [2] and in assay [3] was no less than 75% in each case.

As to `N=C(N)NCCCCCNC(=N)NCCCOc1ccc(C(=N)N)cc1` [compound 132], the pest or weed control at 125 ppm in assay [4], in assay [2] and in assay [3] was no less than 75% each time.

As for `N=C(N)NCCCCCCNC(=N)NCCCOc1ccc(C(=N)N)cc1` [compound 134], the pest or weed control at 125 ppm in assay [4], in assay [2] and in assay [3] was no less than 75% throughout.

`C/N=C(/NCCCOc1ccc(C(=N)N)cc1)N(C)CCCOc1ccc(C(=N)N)cc1` [compound 138]: the pest or weed control at 125 ppm in assay [4], in assay [2] and in assay [3] was no less than 75% in each case.

Take `CNCCNC(=N)NCCCCCCCCNC(=N)NCCCCOc1ccc(C(=N)N)cc1` [compound 147]: the pest or weed control at 125 ppm in assay [4], in assay [2] and in assay [3] was no less than 75% throughout.

On to `N=C(N)c1ccc(OCCCn2cc(-c3ccccc3)n(CCCOc3ccc(C(=N)N)cc3)c2=N)cc1` [compound 149], for which the pest or weed control at 125 ppm in assay [4], in assay [2] and in assay [3] was no less than 75% each time.

As for `N=C(NCC#Cc1ccc(C(=N)N)cc1)NCC#Cc1ccc(C(=N)N)cc1` [compound 155], the pest or weed control at 125 ppm in assay [4], in assay [2] and in assay [3] was no less than 75% throughout.

`N=C(N)c1ccc(COCCCn2ccn(CCCOc3ccc(C(=N)N)cc3)c2=N)cc1` [compound 159]: the pest or weed control at 125 ppm in assay [4], in assay [2] and in assay [3] was no less than 75% in each case.

`N=C(N)c1ccc(SCCCn2ccn(CCCSc3ccc(C(=N)N)cc3)c2=N)cc1` [compound 181]: the pest or weed control at 125 ppm in assay [4], in assay [2] and in assay [3] was no less than 75% in each case.

Consider `N=C(N)NCCCCCCCNC(=N)NCCCOc1ccc(C2=NCCCN2)cc1` [compound 190], for which the pest or weed control at 125 ppm in assay [4], in assay [2] and in assay [3] was no less than 75% in each case.

`N=C(NCCCCOc1ccc(C(=N)N)cc1)NCCCc1cc2cc(C(=N)N)ccc2o1` [compound 196]: the pest or weed control at 125 ppm in assay [4], in assay [2] and in assay [3] was no less than 75% in each case.

`N=C(N)NCCCCCCCCNC(=N)NCCCSc1ccc(C(=N)N)cc1` [compound 198]: the pest or weed control at 125 ppm in assay [4], in assay [2] and in assay [3] was no less than 75% in each case.

As for `N=C(N)NCCCCCCCNC(=N)NCCCCOc1ccc(C2=NCCCN2)cc1` [compound 202], the pest or weed control at 125 ppm in assay [4], in assay [2] and in assay [3] was no less than 75% in each case.

`N=C(N)NCCCCCCCCNC(=N)NCCCCOc1ccc(C2=NCCCN2)cc1` [compound 204]: the pest or weed control at 125 ppm in assay [4], in assay [1] and in assay [3] was no less than 75% each time.

Regarding `N=C(N)NCCCCCCCn1ccn(CCCCOc2ccc(C3=NCCCN3)cc2)c1=N` [compound 208], the pest or weed control at 125 ppm in assay [4], in assay [2] and in assay [3] was no less than 75% in each case.

Consider `N=C(N)NCCCCCCCCn1ccn(CCCCOc2ccc(C3=NCCCN3)cc2)c1=N` [compound 210], for which the pest or weed control at 125 ppm in assay [4], in assay [2] and in assay [3] was no less than 75% each time.

Regarding `N=C(N)NCCCCCCCCCn1ccn(CCCCOc2ccc(C3=NCCCN3)cc2)c1=N` [compound 212], the pest or weed control at 125 ppm in assay [4], in assay [2] and in assay [3] was no less than 75% throughout.

Turning to `N=C(N)c1ccc(OCCCCn2ccn(CCCCOc3ccc(C4=NCCCN4)cc3)c2=N)cc1` [compound 214], the pest or weed control at 125 ppm in assay [4], in assay [2] and in assay [3] was no less than 75% in each case.

As for `N=C(N)NCCCCCCCCn1ccn(CCCCOc2ccc(C(=N)N)cc2)c1=N` [compound 216], the pest or weed control at 125 ppm in assay [4], in assay [1] and in assay [3] was no less than 75% in each case.

As for `N=C(N)NCCCCCCCCCNC(=N)NCCCOc1ccc(C2=NCCCN2)cc1` [compound 218], the pest or weed control at 125 ppm in assay [4], in assay [1] and in assay [3] was no less than 75% throughout.

For `N=C(N)NCCCCCCCNC(=N)NCCCOCc1ccc(C2=NCCCN2)cc1` [compound 224], the pest or weed control at 125 ppm in assay [4], in assay [2] and in assay [3] was no less than 75% in each case.

On to `N=C(N)NCCCCCCCNC(=N)NCCOc1ccc(C(=N)N)cc1` [compound 236], for which the pest or weed control at 125 ppm in assay [1], in assay [2] and in assay [3] was no less than 75% throughout.

In the case of `N=C(N)NCCCCCCCNC(=N)NCCOCc1ccc(C2=NCCCN2)cc1` [compound 238], the pest or weed control at 125 ppm in assay [1], in assay [2] and in assay [3] was no less than 75% throughout.

As for `N=C(N)NCCCCCCCNC(=N)NCCCCOc1ccc(C2=NCCN2)cc1` [compound 244], the pest or weed control at 125 ppm in assay [1], in assay [2] and in assay [3] was no less than 75% each time.

Regarding `N=C(N)NCCCCCCCCNC(=N)NCCCCCOc1ccc(C2=NCCCN2)cc1` [compound 248], the pest or weed control at 125 ppm in assay [4], in assay [1] and in assay [3] was no less than 75% throughout.

On to `N=C(N)NCCCCCCCCNC(=N)NCCCOCc1ccc(C2=NCCCN2)cn1` [compound 250], for which the pest or weed control at 125 ppm in assay [4], in assay [2] and in assay [3] was no less than 75% throughout.

`N=C(N)NCCCCCCCCNC(=N)NCCCc1ccc(C2=NCCCN2)cc1` [compound 252]: the pest or weed control at 125 ppm in assay [4], in assay [1] and in assay [3] was no less than 75% throughout.

On to `CC1(C)CN=C(c2ccc(OCCCCNC(=N)NCCCCCCCCNC(=N)N)cc2)NC1` [compound 258], for which the pest or weed control at 125 ppm in assay [4], in assay [1] and in assay [3] was no less than 75% throughout.

With `N=C(N)NCCCCCCCCNC(=N)NCCCc1cc2cc(C3=NCCCN3)ccc2o1` [compound 260], the pest or weed control at 125 ppm in assay [4], in assay [1] and in assay [3] was no less than 75% in each case.

Take `N=C(N)NCCCCCCCCNC(=N)NCc1ccc(C2=NCCCN2)cc1` [compound 262]: the pest or weed control at 125 ppm in assay [1], in assay [2] and in assay [3] was no less than 75% in each case.

Consider `N=C(N)NCCCCCCCCNC(=N)NCC1=CC2C=C(C3=NCCCN3)C=CC2O1` (stereo not drawn) [compound 268], for which the pest or weed control at 125 ppm in assay [4], in assay [1] and in assay [3] was no less than 75% in each case.

Take `N=C(N)NCCCCCCCCNC(=N)NCCOc1ccc(C(=N)N)cc1` [compound 286]: the pest or weed control at 125 ppm in assay [1] and in assay [3] was no less than 75% each time.

The values above are taken from patent US10111437B2, “Substituted guanidines as fungicides” (Nippon Soda Co., Ltd., priority 2015, dated 2018).
